Toxic doses and inconclusive results are not listed.
System: L1210 leukemia ip in BDF1 mice, survival T/C
Assay: NCI In Vivo Anticancer Drug Screen. Data for tumor model L1210 Leukemia (intraperitoneal) in B6D2F1 (BDF1) mice
Conditions: endpoint: mean survival time, higher = longer survival
Procedure, shortened: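 Each compound was tested against a transplantable tumor grown in mice. The endpoint was survival, with treated animals benchmarked against vehicle controls as a simple ratio.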

[1] = dose: 100.0 mg/kg/injection, schedule: Q01DX009 (ip), vehicle: Klucel (hydroxypropylcellulose) (HPC)
[2] = dose: 100.0 mg/kg/injection, schedule: Q01DX009 (ip), vehicle: saline
[3] = dose: 100.0 mg/kg/injection, schedule: Q04DX003 (ip), vehicle: Klucel (hydroxypropylcellulose) (HPC)
[4] = dose: 100.0 mg/kg/injection, schedule: Q04DX003 (ip), vehicle: saline
[5] = dose: 200.0 mg/kg/injection, schedule: Q01DX009 (ip), vehicle: Klucel (hydroxypropylcellulose) (HPC)
[6] = dose: 200.0 mg/kg/injection, schedule: Q01DX009 (ip), vehicle: saline
[7] = dose: 200.0 mg/kg/injection, schedule: Q04DX003 (ip), vehicle: Klucel (hydroxypropylcellulose) (HPC)
[8] = dose: 400.0 mg/kg/injection, schedule: Q01DX009 (ip), vehicle: Klucel (hydroxypropylcellulose) (HPC)
[9] = dose: 400.0 mg/kg/injection, schedule: Q01DX009 (ip), vehicle: saline
[10] = dose: 400.0 mg/kg/injection, schedule: Q04DX003 (ip), vehicle: Klucel (hydroxypropylcellulose) (HPC)
[11] = dose: 400.0 mg/kg/injection, schedule: Q04DX003 (ip), vehicle: saline
[12] = dose: 100.0 mg/kg/injection, schedule: Q04DX003 (ip), vehicle: saline with Tween-80
[13] = dose: 200.0 mg/kg/injection, schedule: Q04DX003 (ip), vehicle: saline with Tween-80
[14] = dose: 100.0 mg/kg/injection, schedule: Q01DX009 (ip), vehicle: saline with Tween-80
[15] = dose: 200.0 mg/kg/injection, schedule: Q01DX009 (ip), vehicle: saline with Tween-80
[16] = dose: 50.0 mg/kg/injection, schedule: Q01DX009 (ip), vehicle: saline with Tween-80

Cc1ccc(NC(=O)c2ccccc2Cl)cc1Cl
T/C (dose: 25.0 mg/kg/injection, schedule: Q04DX004 (ip), vehicle: Klucel (hydroxypropylcellulose) (HPC)): 89 % of control
T/C (dose: 50.0 mg/kg/injection, schedule: Q04DX004 (ip), vehicle: Klucel (hydroxypropylcellulose) (HPC)): 98 % of control
T/C [1]: 96 % of control
T/C [2]: 110 % of control
T/C [3]: 95 % of control
T/C [4]: 120 % of control
T/C (dose: 100.0 mg/kg/injection, schedule: Q04DX004 (ip), vehicle: Klucel (hydroxypropylcellulose) (HPC)): 88 % of control
T/C (dose: 135.0 mg/kg/injection, schedule: Q04DX004 (ip), vehicle: Klucel (hydroxypropylcellulose) (HPC)): 96 % of control
T/C [5]: 94 % of control
T/C [6]: 102 % of control
T/C [7]: 95 % of control
T/C [8]: 98 % of control
T/C [9]: 102 % of control
T/C [10]: 96 % of control
T/C [11]: 115 % of control

O=C1N(CO)C2C(N1CO)N(CO)C(=O)N2CO (configuration not stated)
T/C (dose: 44.0 mg/kg/injection, schedule: Q04DX003 (ip), vehicle: saline): 100 % of control
T/C (dose: 66.0 mg/kg/injection, schedule: Q04DX003 (ip), vehicle: saline): 103 % of control
T/C [2]: 118 % of control
T/C [4]: 103 % of control
T/C (dose: 150.0 mg/kg/injection, schedule: Q04DX003 (ip), vehicle: saline): 102 % of control
T/C [6]: 113 % of control
T/C (dose: 200.0 mg/kg/injection, schedule: Q04DX003 (ip), vehicle: saline): 115 % of control
T/C [9]: 116 % of control
T/C [11]: 114 % of control

CC(C)(C)OC(=O)C1(c2ccccc2)OC1c1ccccc1 (configuration not stated)
T/C [3]: 105 % of control
T/C [7]: 100 % of control
T/C [10]: 96 % of control

O=C1C2CCN(CC2)C1CN1CCC(O)(c2ccc(Cl)cc2)CC1 (configuration not stated)
T/C [3]: 104 % of control
T/C [7]: 101 % of control

CCCCCCSC(=O)Nc1ccc(C)c(NC(=O)SCCCCCC)c1
T/C [12]: 91 % of control
T/C [13]: 89 % of control

O=C(O)C(Br)Cc1cnc[nH]1 (configuration not stated)
T/C (dose: 50.0 mg/kg/injection, schedule: Q01DX009 (ip), vehicle: saline): 106 % of control
T/C [2]: 106 % of control
T/C [6]: 98 % of control

O=NN(CCCl)C(=O)Nc1ccccc1Cl
T/C (dose: 100.0 mg/kg/injection, schedule: Q01DX001 (ip), vehicle: carboxymethylcellulose (CMC)): 87 % of control

CC(C)[Si](F)(c1ccc(Br)cc1)C(C)C
T/C [14]: 103 % of control
T/C [15]: 95 % of control

CCOC(=N)N1Cc2ccccc2CCc2ccccc2C1
T/C (dose: 6.25 mg/kg/injection, schedule: Q01DX009 (ip), vehicle: Klucel (hydroxypropylcellulose) (HPC)): 95 % of control
T/C (dose: 12.5 mg/kg/injection, schedule: Q01DX009 (ip), vehicle: Klucel (hydroxypropylcellulose) (HPC)): 101 % of control
T/C (dose: 25.0 mg/kg/injection, schedule: Q01DX009 (ip), vehicle: Klucel (hydroxypropylcellulose) (HPC)): 101 % of control
T/C (dose: 25.0 mg/kg/injection, schedule: Q04DX002 (ip), vehicle: Klucel (hydroxypropylcellulose) (HPC)): 102 % of control
T/C (dose: 50.0 mg/kg/injection, schedule: Q04DX002 (ip), vehicle: Klucel (hydroxypropylcellulose) (HPC)): 97 % of control

CCN1C(c2ccccc2)C1c1ccccc1 (configuration not stated)
T/C [3]: 101 % of control
T/C [7]: 102 % of control
T/C [10]: 101 % of control

c1ccc(N2CCN(Cc3ccc4ccccc4c3)CC2)cc1
T/C (dose: 100.0 mg/kg/injection, schedule: Q01DX001 (ip), vehicle: saline with Tween-80): 96 % of control
T/C (dose: 200.0 mg/kg/injection, schedule: Q01DX001 (ip), vehicle: saline with Tween-80): 100 % of control
T/C (dose: 400.0 mg/kg/injection, schedule: Q01DX001 (ip), vehicle: saline with Tween-80): 91 % of control

C=CCOCC(O)CNCC(O)COCC=C (configuration not stated)
T/C (dose: 25.0 mg/kg/injection, schedule: Q01DX009 (ip), vehicle: saline with Tween-80): 98 % of control
T/C (dose: 25.0 mg/kg/injection, schedule: Q04DX003 (ip), vehicle: saline with Tween-80): 100 % of control
T/C [16]: 101 % of control
T/C (dose: 50.0 mg/kg/injection, schedule: Q04DX003 (ip), vehicle: saline with Tween-80): 92 % of control
T/C [14]: 101 % of control
T/C [12]: 102 % of control

Cc1cc(C)nc(N)c1
T/C (dose: 12.5 mg/kg/injection, schedule: Q04DX002 (ip), vehicle: saline): 105 % of control
T/C (dose: 25.0 mg/kg/injection, schedule: Q04DX002 (ip), vehicle: saline): 114 % of control

CC(=O)c1cc2cc(Br)ccc2oc1=O
T/C [1]: 98 % of control
T/C [5]: 88 % of control
T/C [8]: 96 % of control

O=C1C(Cl)=C(Cl)C(=O)c2ccccc21
T/C (dose: 0.5 mg/kg/injection, schedule: Q01DX009 (ip), vehicle: Klucel (hydroxypropylcellulose) (HPC)): 108 % of control
T/C (dose: 1.0 mg/kg/injection, schedule: Q01DX009 (ip), vehicle: Klucel (hydroxypropylcellulose) (HPC)): 110 % of control
T/C (dose: 1.0 mg/kg/injection, schedule: Q04DX003 (ip), vehicle: Klucel (hydroxypropylcellulose) (HPC)): 105 % of control
T/C (dose: 2.0 mg/kg/injection, schedule: Q01DX009 (ip), vehicle: Klucel (hydroxypropylcellulose) (HPC)): 108 % of control
T/C (dose: 2.0 mg/kg/injection, schedule: Q04DX003 (ip), vehicle: Klucel (hydroxypropylcellulose) (HPC)): 108 % of control
T/C (dose: 4.0 mg/kg/injection, schedule: Q04DX003 (ip), vehicle: Klucel (hydroxypropylcellulose) (HPC)): 110 % of control
T/C (dose: 5.0 mg/kg/injection, schedule: Q01DX009 (ip), vehicle: saline with Tween-80): 93 % of control
T/C (dose: 10.0 mg/kg/injection, schedule: Q01DX009 (ip), vehicle: saline with Tween-80): 97 % of control
T/C (dose: 20.0 mg/kg/injection, schedule: Q01DX009 (ip), vehicle: saline with Tween-80): 97 % of control

O=C(CNC(=O)c1ccc(C(=O)NCC(=O)Nc2ccc(C3=NCCCN3)cc2)cc1)Nc1ccc(C2=NCCCN2)cc1
T/C (dose: 0.62 mg/kg/injection, schedule: Q01DX015 (ip), vehicle: methylcellulose (MC)): 101 % of control
T/C (dose: 1.25 mg/kg/injection, schedule: Q01DX009 (ip), vehicle: saline): 97 % of control
T/C (dose: 1.25 mg/kg/injection, schedule: Q01DX015 (ip), vehicle: methylcellulose (MC)): 98 % of control
T/C (dose: 2.5 mg/kg/injection, schedule: Q01DX009 (ip), vehicle: saline): 110 % of control
T/C (dose: 2.5 mg/kg/injection, schedule: Q01DX015 (ip), vehicle: methylcellulose (MC)): 98 % of control
T/C (dose: 3.75 mg/kg/injection, schedule: Q01DX015 (ip), vehicle: methylcellulose (MC)): 116 % of control
T/C (dose: 10.0 mg/kg/injection, schedule: Q01DX009 (ip), vehicle: saline): 113 % of control
T/C (dose: 20.0 mg/kg/injection, schedule: Q01DX015 (ip), vehicle: methylcellulose (MC)): 229 % of control
T/C (dose: 25.0 mg/kg/injection, schedule: Q01DX001 (ip), vehicle: methylcellulose (MC)): 106 % of control
T/C (dose: 30.0 mg/kg/injection, schedule: Q01DX015 (ip), vehicle: methylcellulose (MC)): 186 % of control
T/C (dose: 40.0 mg/kg/injection, schedule: Q01DX009 (ip), vehicle: saline): 153 % of control
T/C (dose: 40.0 mg/kg/injection, schedule: Q01DX015 (ip), vehicle: methylcellulose (MC)): 191 % of control
T/C (dose: 50.0 mg/kg/injection, schedule: Q01DX001 (ip), vehicle: methylcellulose (MC)): 113 % of control
T/C (dose: 60.0 mg/kg/injection, schedule: Q01DX009 (ip), vehicle: Klucel (hydroxypropylcellulose) (HPC)): 256 % of control
T/C (dose: 80.0 mg/kg/injection, schedule: Q01DX009 (ip), vehicle: Klucel (hydroxypropylcellulose) (HPC)): 300 % of control
T/C (dose: 120.0 mg/kg/injection, schedule: Q01DX009 (ip), vehicle: Klucel (hydroxypropylcellulose) (HPC)): 115 % of control
T/C (dose: 160.0 mg/kg/injection, schedule: Q01DX009 (ip), vehicle: Klucel (hydroxypropylcellulose) (HPC)): 102 % of control

COc1ncccn1
T/C (dose: 75.0 mg/kg/injection, schedule: Q01DX009 (ip), vehicle: saline): 93 % of control

Cc1ccc(CNc2ccc([N+](=O)[O-])cc2)cc1
T/C [16]: 92 % of control
T/C [14]: 103 % of control
T/C [12]: 93 % of control
T/C [15]: 97 % of control
T/C [13]: 101 % of control
T/C (dose: 400.0 mg/kg/injection, schedule: Q04DX003 (ip), vehicle: saline with Tween-80): 88 % of control

Reference: PubChem BioAssay AID248 (DTP/NCI, 2004)
